Results published in patent US20230159954A1, “Apparatus for Improved Transfection and / or intracellular delivery efficiency of an Agent into a Eukaryotic Cell and / or Protein Expression and Method of Use Thereof” (St Andrews Pharmaceutical Technology Ltd., priority 2020, published 2023).
“Also recorded” adds a separate entry of the source.

Tested on: Human Colon Tumour (HCT) 116 cells
Test: Western Blot of p53 isoforms after doxorubicin treatment with or without pulsed technology
Type: cell-based
Details: for uptake / intra-cellular delivery of doxorubicin from the media: concluded from upregulation of p53 isoforms
Description: Human Colon Tumour (HCT) 116 cells (adherent cells) (ATCC, USA-ATCC® CCL-247™) were seeded at a density of 3×10^5 cells per well in two CELLSTAR® 6-well plates (9.6 cm^2) in a final volume of 5 mL Dulbecco's Modified Eagle Medium (DMEM) (Thermo Fisher, USA)+10% Fetal Bovine Serum (FBS) (Hyclone, USA) 24 hours before treatment.
The naked agent used was Doxorubicin (0.25 μM) (Sigma Aldrich) in absolute ethanol and was given to the cells for a 1 hour treatment period and incubated at 37° C., at 5% CO^2.
After treatment the media was removed and fresh media was added to the cells. One of the plates was incubated directly at 37° C., at 5% CO^2 and the second plate was placed in a different incubator and pulsed using the pulsed technology of the present invention at 37° C., at 5% CO^2.
Protein extracts were collected at 3 hours, 6 hours, 9 hours, 16 hours or 24 hours of treatment for analysis by SDS-page.
1. For protein extraction the cells were washed twice with ice-cold PBS and then lysed in NP-40 extraction buffer (50 mM Tris pH 7.5; 10% glycerol; 0.1% “NP-40 Alternative” (Merck Millpore, USA); 100 mM NaCl; 0.2 mM EDTA) supplemented with 1× Complete™ Protease Inhibitor Cocktail (Roche, Switzerland). Extracts were sonicated (20 seconds, 20% amplitude) and protein concentration was determined using BCA™ Protein Assay Kit (ThermoFisher Scientific, USA) according to the manufacturer's recommendations.
1. Protein extracts (15/20 μg depending on the experiment) were supplemented with 0.1M dithiothreitol (DTT) and 1×LDS buffer (Invitrogen, USA) and were heated at 95° C. for 10 min before loading on NuPAGE 10% Bis-Tris polyacrylamide gels (Invitrogen, USA).
2. Protein samples were separated by electrophoresis (100V) using 1×MOPS Running Buffer. Transfer of proteins was performed at 12V overnight onto a nitrocellulose membrane (Protran 0.1 μm from GE Healthcare, USA) in 1× Transfer Buffer supplemented with 20% methanol. 1× Transfer Buffer is prepared from 10× Wet blot solution containing 144 g of glycine and 30 g Tris-Base in a final volume of 1 L milli-Q water.
3. Membranes were blocked for 30 min in 5% BSA diluted in PBS-0.1% Tween20 before being incubated overnight with a primary antibody (Mouse monoclonal antibody DO1). After a wash of 15 min in PBS-Tween20, membranes were incubated for 1 h with a corresponding secondary antibody (HRP conjugated Donkey anti Mouse). All secondary antibodies, conjugated with Horse Radish Peroxidase (HRP), were purchased from Jackson ImmunoResearch lab and used at 1:10000/1:15000 dilution (depending on the antibody) in 5% BSA-PBS-Tween20.
At the end of the incubation membranes were washed twice with PBS-Tween20 for 15 min followed by a final 10 min wash with PBS. The chemiluminescence signal was detected on Hyperfilm™ ECL (Cytiva, USA) using the Amersham ECL Western Blotting Detection System (Cytiva, USA).

## COc1cccc2c1C(=O)c1c(O)c3c(c(O)c1C2=O)C[C@@](O)(C(=O)CO)C[C@@H]3O[C@H]1C[C@H](N)[C@H](O)[C@H](C)O1 [Doxorubicin]
0.25 μM doxorubicin for 1 hour, pulsed technology vs control, after 16 hours
  p53alpha expression (Western Blot, FIG. 8): significant overproduction of p53alpha compared to the control
Doxorubicin 0.25 μM for 1 hour, pulsed technology vs control
  Other isoforms of p53 (d133p53alpha, d133p53beta, d160p53beta) expression (Western Blot, FIG. 7): more upregulated
Doxorubicin 0.25 μM for 1 hour, pulsed technology vs control, seen from 3 hours, most evident 24 hours post-treatment
  p53alpha expression (Western Blot, FIG. 7): upregulated
doxorubicin, pulsed technology arm vs control arm
  γH2AX expression (ionising radiation marker, Western Blot): no observed change; also recorded: remained unchanged
Pulsed technology vs control
  uptake / intra-cellular delivery of doxorubicin from the media: significantly improved
Pulsed technology vs control, listed as doxorubicin
  uptake / intra-cellular delivery of doxorubicin from the media: increases the ability of the cells to uptake doxorubicin
